Data from PubChem BioAssay (NCI).
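Where inhibition never reached the appropriate level, the endpoint shown equals the highest concentration tested. Otherwise, values were interpolated linearly from a five-concentration, 48-hour dose response in 96-well plates. TGI: concentration producing complete growth inhibition.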

Legend:
Experiment in all cases: inhibition of tumour cell growth, NCI panel, 48 h
SF-295 CNS = test system: SF-295 CNS
OVCAR-5 ovarian = test system: OVCAR-5 ovarian
NCI-H226 lung = test system: NCI-H226 lung
HT29 colon = test system: HT29 colon
SW-620 colon = test system: SW-620 colon
OVCAR-3 ovarian = test system: OVCAR-3 ovarian
DMS 273 small cell lung = test system: DMS 273 small cell lung
UACC-257 melanoma = test system: UACC-257 melanoma
COLO 205 colon = test system: COLO 205 colon
HCT-116 colon = test system: HCT-116 colon
HOP-62 NSCLC = test system: HOP-62 NSCLC
SN12C renal = test system: SN12C renal
RXF 393 renal = test system: RXF 393 renal
SF-268 CNS = test system: SF-268 CNS
U251 CNS = test system: U251 CNS
BT-549 breast = test system: BT-549 breast
MDA-N = test system: MDA-N
HS 578T breast = test system: HS 578T breast
T-47D breast = test system: T-47D breast
DU-145 prostate = test system: DU-145 prostate

SMILES	TGI (SF-295 CNS) [µM]	TGI (OVCAR-5 ovarian) [µM]	TGI (NCI-H226 lung) [µM]	TGI (HT29 colon) [µM]	TGI (SW-620 colon) [µM]	TGI (OVCAR-3 ovarian) [µM]	TGI (DMS 273 small cell lung) [µM]	TGI (UACC-257 melanoma) [µM]	TGI (COLO 205 colon) [µM]	TGI (HCT-116 colon) [µM]	TGI (HOP-62 NSCLC) [µM]	TGI (SN12C renal) [µM]	TGI (RXF 393 renal) [µM]	TGI (SF-268 CNS) [µM]	TGI (U251 CNS) [µM]	TGI (BT-549 breast) [µM]	TGI (MDA-N) [µM]	TGI (HS 578T breast) [µM]	TGI (T-47D breast) [µM]	TGI (DU-145 prostate) [µM]
Clc1ccc(CCn2cncn2)cc1	> 100	> 100	> 100	> 100	> 100	> 100	> 100	> 100	> 100	> 100	> 100	> 100	> 100	> 100	> 100	–	–	–	–	–
O=C(O)COc1ccc(C(=O)/C(SS/C(C(=O)c2ccc(OCC(=O)O)c(Cl)c2Cl)=C2\C=C(c3ccc(Cl)cc3)SS2)=C2/C=C(c3ccc(Cl)cc3)SS2)c(Cl)c1Cl	82.5	> 100	18.7	> 100	11.5	26.6	32.7	> 100	1.27	22.8	> 100	1.79	–	27.6	15.4	–	–	–	–	–
O=c1c2ccccc2nc2n1-c1ccccc1SC2	> 100	> 100	–	> 100	> 100	> 100	> 100	> 100	> 100	> 100	> 100	> 100	> 100	> 100	> 100	–	–	–	–	–
Cc1nc(N2N=C(c3ccc(Cl)cc3)CCC2=O)sc1[N+](=O)[O-]	> 100	–	> 100	> 100	> 100	> 100	> 100	> 100	> 100	> 100	> 100	> 100	> 100	> 100	> 100	–	–	–	–	–
N#Cc1ccc(CSC2=C(c3ccc(Cl)cc3)S/C(=C3\SC(SCc4ccc(C#N)cc4)=C(c4ccc(Cl)cc4)S3)S2)cc1	> 100	> 100	> 100	> 100	> 100	> 100	–	> 100	> 100	> 100	> 100	> 100	> 100	> 100	> 100	> 100	> 100	> 100	> 100	> 100
CC(Oc1ccccc1Cl)C(=O)NN1C(=O)CC(=O)NC1=S (stereo not given)	> 100	> 100	> 100	> 100	> 100	> 100	–	> 100	> 100	> 100	> 100	> 100	> 100	> 100	> 100	> 100	> 100	> 100	> 100	> 100
O=C(c1nc2ccccc2[nH]c1=O)C(O)c1ccco1 (stereo not given)	> 100	> 100	> 100	> 100	> 100	> 100	> 100	> 100	> 100	> 100	> 100	> 100	> 100	> 100	> 100	–	–	–	–	–
CCOC(=O)C(C(=O)OCC)c1ccc([N+](=O)[O-])o1	36.8	32.1	45.7	31.2	9.94	15.8	33.4	28.1	10.4	29	> 75.5	32.2	24.9	70.3	36.8	–	–	–	–	–
Cn1c(=O)c2c(nc3sc4c(n32)C(=O)c2c(O)ccc(O)c2C4=O)n(C)c1=O	> 100	48.6	> 100	4.34	1.78	> 20.9	–	28.5	12.1	4.68	30	3.93	5.59	24.5	> 48.7	17.7	4.1	64.1	7.6	26.7
NC(=O)c1cccc(N=c2oc3ccc(Br)cc3cc2-c2nc3ccccc3[nH]2)c1	30.8	30.2	24.2	34.7	47.7	32.1	–	43.4	35.8	33.3	33.8	34.4	43.5	43.6	31	30.4	38.1	74.5	29.2	28.9
O[C@H]1[C@H](O)[C@@H](O)[C@@]2(O)CC[C@@H]1N2	> 100	> 100	> 100	> 100	> 100	> 100	–	> 100	> 100	> 100	> 100	> 100	> 100	> 100	> 100	> 100	> 100	> 100	> 100	> 100
O=C(CCCN1CCC2(CC1)CC(=O)N(N1CCOCC1)C2=O)c1ccc(F)cc1	> 100	> 100	> 100	> 100	> 100	> 100	–	> 100	> 100	> 100	> 100	> 100	> 100	> 100	> 100	> 100	> 100	> 100	> 100	> 100
Cc1c2c(OCC(O)CN3CCN(c4ccccc4)CC3)nn(C)c(=O)c2c(C)n1-c1ccccc1 (stereo not given)	51.3	62	54.5	46.3	98.8	45.5	–	72.1	39.6	31.3	> 100	36.5	70.2	73.5	30.2	47.6	35.4	65.9	71.8	> 100
